# Measurements: EP0509180A1, “Use of GABA-T inhibitors for the treatment of schizophrenia and phencyclidine intoxication” (MERRELL DOW PHARMACEUTICALS INC., priority 1991, dated 1992)
# How the values were obtained:
# [1] = system: male CDl albino mice; assay: Spontaneous locomotor activity of mice (actimeter, Event-Counter); format: in vivo
# Experimental: (§1) In determining efficacy for the above-stated uses of gamma-aminobutyric acid transaminase inhibitors standard laboratory models are employed wherein effects on phencyclidine-induced locomotor activity are determined. One such test employed is: male CDl albino mice (weighing 30-40 grams) (Charles River, St. Aubin-les-Elbeuf, France) kept under standardized conditions (22°C, 60% relative humidity; 12 hours light - 12 hours dark cycle; water and standard diet ad libitum). Locomotor activity is determined using the Event-Counter of Columbus Instr. Corp. (Columbus, Ohio). The animals (six per cage) are brought into a room which is equipped with an actimeter, and allowed to adapt to the new environment for several hours. Phencyclidine is given 5 hours after administration of the GABA-T inhibitors. The dose of phencyclidine used is 5 µg/g in 10 µl of physiological saline, i.p. Immediately after phencyclidine administration (or of the same volume of physiological saline in the case of controls), the animals are placed individually into standard plastic cages (23 cm × 17 cm), and the actimeter is set into action. Total time of observation: 35 minutes. The scores of 5 minute intervals are integrated and stored by the computer.
# (§2) In order to test "direct" effects of the drugs, locomotor activity was determined, starting 10 minutes after intraperitoneal administration of 150 mg/kg (4S)-allenylGABA, and 400 mg/kg vigabatrin, respectively.
# (§3) The locomotor behavior of mice with elevated brain GABA concentrations was tested as follows: vigabatrin and (4S)-allenylGABA were administered intraperitoneally in a dose-range from 100-800 mg/kg and 50-300 mg/kg, respectively. Within this dose range whole brain GABA concentrations, as observed 5 hours post injection were between 2.5 and 10 µmol/g.
# [2] = system: male CDl albino mice; assay: Phencyclidine (PCP)-induced locomotor activity of mice (actimeter, Event-Counter); format: in vivo; conditions: for direct effect on phencyclidine-induced locomotor behavior (in words): 10 minutes (15 minutes) after i.p. 150 mg/kg (4S)-allenylGABA or 400 mg/kg vigabatrin (Table I)
# Experimental: as §1, §2, §3
# [3] = system: whole brain GABA; assay: Whole brain GABA concentrations after GABA-T inhibitor administration; format: in vivo, mice; conditions: 15 minutes after administration of optimum doses
compound,measurement,setting,value
"C=C=C[C@@H](N)CCC(=O)O [(4S)-allenylGABA, (S)-4-amino-5,6-heptadienoic acid]","Spontaneous locomotor activity, Mean scores ± S.D.","[1]; 50 mg/kg i.p., 5 h pretreatment",306.244 ( 6)
same,"Spontaneous locomotor activity, Mean scores ± S.D.","[1]; 100 mg/kg i.p., 5 h pretreatment",406.221 ( 6)
same,"Spontaneous locomotor activity, Mean scores ± S.D.","[1]; 150 mg/kg i.p., 5 h pretreatment",315.304 ( 6)
same,"Spontaneous locomotor activity, Mean scores ± S.D.","[1]; 150 mg/kg i.p., given 10 minutes before physiol. saline",688 ± 308 ( 6)
same,"Spontaneous locomotor activity, Mean scores ± S.D.","[1]; 300 mg/kg i.p., 5 h pretreatment",445.420 ( 6)
same,sedation / motor activity at very high dose,[1]; 600 mg/kg (not shown),sedated
same,effect on spontaneous locomotor activity (in words),"[1]; dose range from 50 to 300 mg/kg, 5 h pretreatment (Table III)",did not affect
same,"PCP-induced locomotor activity, Mean scores ± S.D.","[2]; 150 mg/kg i.p., given 10 minutes before phencyclidine (5 mg/kg)",2680 ± 1040 (11)
same,direct effect on phencyclidine-induced locomotor behavior (in words),[2],absence of an effect
same,minimal effective dose,"[2]; Mus musculus, 5 h, read-out: dose giving a statistically significant difference to mice receiving only phencyclidine",≥ 100 mg/kg
same,phencyclidine-induced hypermotility reduced by,[2]; highest dose given (300 mg/kg) i.p. 5 h before phencyclidine,75%
same,brain GABA concentrations,[3],below 3 µmol/g
"C=C[C@H](N)CCC(=O)O [Vigabatrin, (R)S-4-aminohex-5-enoic acid]","Spontaneous locomotor activity, Mean scores ± S.D.","[1]; 200 mg/kg i.p., 5 h pretreatment",505 ± 344 (6)
same,"Spontaneous locomotor activity, Mean scores ± S.D.","[1]; 400 mg/kg i.p., 5 h pretreatment",471 ± 306 (12)
same,"Spontaneous locomotor activity, Mean scores ± S.D.","[1]; 400 mg/kg i.p., given 10 minutes before physiol. saline, 35 minutes observation",528 ± 239 ( 6)
same,"Spontaneous locomotor activity, Mean scores ± S.D.","[1]; 600 mg/kg i.p., 5 h pretreatment",361 ± 139 (6)
same,"Spontaneous locomotor activity, Mean scores ± S.D.","[1]; 700 mg/kg i.p., 5 h pretreatment",441 ± 298 (6)
same,"Spontaneous locomotor activity, Mean scores ± S.D.","[1]; 800 mg/kg i.p., 5 h pretreatment",435 ± 275 (6)
same,effect on spontaneous locomotor activity (in words),"[1]; 100-800 mg/kg i.p., 5 h pretreatment (Table II)",not significantly affected
same,"PCP-induced locomotor activity, Mean scores ± S.D.",[2]; 100 mg/kg i.p. 5 h before phencyclidine (5 mg/kg),2360 ± 1100 (12)
same,"PCP-induced locomotor activity, Mean scores ± S.D.",[2]; 200 mg/kg i.p. 5 h before phencyclidine (5 mg/kg),1970 ± 730 (12)
same,"locomotor activity, lowest value, as % of that of phencyclidine-treated controls",[2]; 400 mg/kg i.p. 5 h before phencyclidine,55%
same,"PCP-induced locomotor activity, Mean scores ± S.D.",[2]; 400 mg/kg i.p. 5 h before phencyclidine (5 mg/kg),1690 ± 1385 (12)
same,"PCP-induced locomotor activity, Mean scores ± S.D.","[2]; 400 mg/kg i.p., given 10 minutes before phencyclidine (5 mg/kg)",2460 ± 1220 (11)
same,"PCP-induced locomotor activity, Mean scores ± S.D.",[2]; 600 mg/kg i.p. 5 h before phencyclidine (5 mg/kg),2180 ± 410 (12)
same,"PCP-induced locomotor activity, Mean scores ± S.D.",[2]; 700 mg/kg i.p. 5 h before phencyclidine (5 mg/kg),1780 ± 1080 (12)
same,"PCP-induced locomotor activity, Mean scores ± S.D.",[2]; 800 mg/kg i.p. 5 h before phencyclidine (5 mg/kg),2100 ± 1780 (12)
same,direct effect on phencyclidine-induced locomotor behavior (in words),[2],absence of an effect
same,brain GABA concentrations,[3],below 3 µmol/g
